Results as given in patent US4265885A, “Anthracyclines containing branched-chain amino-deoxy sugars” (Farmitalia Carlo Erba S.p.A., priority 1978, dated 1981).
Values after ≈ are worked out from the molar mass of the structure shown. Like-named read-outs stand apart in the source and are kept apart here.

Tests used:
HeLa cells = assay: Activity on HeLa cells viability in vitro; assay type: cell-based; conditions: Homo sapiens, read-out: ID50 (Inhibiting Dose 50%)
[1] = Toxic deaths in mice treated in the P 388 leukemia test; assay type: in vivo; conditions: as hydrochloride
Protocol: (§1) The new anthracycline glycosides described in the invention, display antitumor activity. The compounds have been tested against HeLa cells "in vitro" (time of exposure to the drugs: 24 hours) and on P 388 leukemia in mice in comparison with daunorubicin and doxorubicin. The results of the "in vitro" tests, shown in Table I are reported as ID50 (Inhibiting Dose 50% in ng/ml).
(§2) The antitumor activity was tested "in vivo" on P 388 leukemia in comparison with daunorubicin and doxorubicin.
(§3) ^(a) Mice were treated i.p. on day 1 after tumor cell inoculation.

P 388 leukemia = assay: Activity against P 388 leukemia in mice (survival); assay type: in vivo; conditions: as hydrochloride
Protocol: as §1, §2, §3
^(b) Median survival time of treated mice, over median survival time

[2] = HeLa cells viability in vitro, time of exposure to the drugs: 24 hours, compounds as hydrochloride
[3] = dose 4.4 mg/kg i.p. on day 1 after tumor cell inoculation
[4] = dose 6.6 mg/kg i.p. on day 1 after tumor cell inoculation
[5] = dose 10.0 mg/kg i.p. on day 1 after tumor cell inoculation
[6] = dose 22.5 mg/kg i.p. on day 1 after tumor cell inoculation
[7] = dose 33.7 mg/kg i.p. on day 1 after tumor cell inoculation
[8] = dose 50.5 mg/kg i.p. on day 1 after tumor cell inoculation
[9] = dose 2.9 mg/kg i.p. on day 1 after tumor cell inoculation

SMILES | IC50 (HeLa cells; [2]) [µg/mL] | No. of toxic deaths/total [1, 3] | No. of toxic deaths/total [1, 4] | No. of toxic deaths/total [1, 5] | T/C (median survival time of treated mice over median survival time of control × 100) (P 388 leukemia; [3]) [%] | T/C (median survival time of treated mice over median survival time of control × 100) (P 388 leukemia; [4]) [%] | T/C (median survival time of treated mice over median survival time of control × 100) (P 388 leukemia; [5]) [%] | No. of toxic deaths/total [1, 6] | No. of toxic deaths/total [1, 7] | No. of toxic deaths/total [1, 8] | T/C (median survival time of treated mice over median survival time of control × 100) (P 388 leukemia; [6]) [%] | T/C (median survival time of treated mice over median survival time of control × 100) (P 388 leukemia; [7]) [%] | T/C (median survival time of treated mice over median survival time of control × 100) (P 388 leukemia; [8]) [%] | IC50 (HeLa cells; HeLa, 24 h) [µg/mL] | No. of toxic deaths/total [1, 9] | T/C (median survival time of treated mice over median survival time of control × 100) (P 388 leukemia; [9]) [%]
COc1cccc2c1C(=O)c1c(O)c3c(c(O)c1C2=O)C[C@@](O)(C(=O)CO)C[C@@H]3O[C@H]1C[C@H](N)[C@](C)(OC)[C@H](C)O1 [4'-C-Methyl-4'-O-methyl-adriamycin] | 0.005 (≈ 0.00875 µM) | 0/10 | 0/10 | 2/17 | 165 | 172 | 202 | – | – | – | – | – | – | – | – | –
COc1cccc2c1C(=O)c1c(O)c3c(c(O)c1C2=O)C[C@@](O)(C(C)=O)C[C@@H]3O[C@H]1C[C@H](N)[C@](C)(OC)[C@H](C)O1 [4'-C-methyl-4'-O-methyl-daunorubicin (V), 4'-C-Methyl-4'-O-methyl-daunomycin] | 0.034 (≈ 0.0612 µM) | – | 0/18 | – | – | 140 | – | 0/20 | 0/26 | 1/5 | 155 | 150 | 137 | – | – | –
COc1cccc2c1C(=O)c1c(O)c3c(c(O)c1C2=O)C[C@@](O)(C(=O)CO)C[C@@H]3O[C@H]1C[C@H](N)[C@@](C)(OC)[C@H](C)O1 [4'-Epi-4'-C-methyl-4'-O-methyl-adriamycin] | 0.027 (≈ 0.0472 µM) | 0/8 | 0/8 | 0/8 | 165 | 185 | 205 | – | – | – | – | – | – | – | – | –
COc1cccc2c1C(=O)c1c(O)c3c(c(O)c1C2=O)C[C@@](O)(C(C)=O)C[C@@H]3O[C@H]1C[C@H](N)[C@@](C)(OC)[C@H](C)O1 [4'-Epi-4'-C-methyl-4'-O-methyl-daunomycin] | 0.0025 to 0.0034 (≈ 0.0045 to 0.00612 µM) | – | 0/8 | 0/8 | – | 140 | 147 | 0/8 | – | – | 150 | – | – | – | – | –
COc1cccc2c1C(=O)c1c(O)c3c(c(O)c1C2=O)C[C@@](O)(C(C)=O)C[C@@H]3O[C@H]1C[C@H](N)[C@H](O)[C@H](C)O1 [Daunorubicin, reference compound] | – | 3/48 | 28/48 | – | 161 | 156 | – | – | – | – | – | – | – | 0.01 (≈ 0.019 µM) | 0/48 | 163
COc1cccc2c1C(=O)c1c(O)c3c(c(O)c1C2=O)C[C@@](O)(C(=O)CO)C[C@@H]3O[C@H]1C[C@H](N)[C@H](O)[C@H](C)O1 [Doxorubicin, reference compound] | – | 0/28 | 0/28 | 5/28 | 190 | 201 | 241 | – | – | – | – | – | – | 0.01 (≈ 0.0184 µM) | – | –
